Measured values published in patent publication US6861427B2, “Azabicyclylmethyl derivatives of 2,3-dihydro-1,4-dioxino[2,3-f]quinoline as 5-HT1A antagonists” (Wyeth, priority 2001, dated 2005).
Where a name gives a salt, the structure may show the parent alone.

Columns and labels:
[1] = molecular target: T1, human 5-HT1A receptors (Homo sapiens, UniProt P08908); experiment: [3H] 8-OH-DPAT displacement from the 5-HT1A serotonin receptor (CHO cells); type: binding; conditions: displacement of [3H] 8-OH-DPAT, CHO cells stably transfected with human 5-HT1A receptors; read-out: 5-HT1A Receptor Affinity KI
T1 construct: expressed in transfected cells; host or cells: CHO cells
T1 sequence (P08908 1-422): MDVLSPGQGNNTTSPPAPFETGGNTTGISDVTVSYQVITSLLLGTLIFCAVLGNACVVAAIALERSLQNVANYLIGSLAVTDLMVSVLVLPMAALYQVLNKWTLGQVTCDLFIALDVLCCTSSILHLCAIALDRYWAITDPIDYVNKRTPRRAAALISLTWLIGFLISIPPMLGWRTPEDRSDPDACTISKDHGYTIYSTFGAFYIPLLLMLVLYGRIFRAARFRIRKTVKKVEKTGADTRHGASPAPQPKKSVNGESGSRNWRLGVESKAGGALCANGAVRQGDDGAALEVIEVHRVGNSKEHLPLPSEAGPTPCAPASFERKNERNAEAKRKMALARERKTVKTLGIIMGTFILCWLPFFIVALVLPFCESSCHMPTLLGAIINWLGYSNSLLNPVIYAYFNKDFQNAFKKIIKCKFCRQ
Description: High affinity for the serotonin 5-HT1A receptor was established by testing the claimed compound's ability to displace [^3H] 8-OH-DPAT (dipropylaminotetralin) from the 5-HT1A serotonin receptor following a modification of the procedure of Hall et al., J. Neurochem. 44, 1685 (1985) which utilizes CHO cells stably transfected with human 5-HT1A receptors.

[2] = molecular target: T2, cloned human 5-HT1A receptors (Homo sapiens, UniProt P08908); experiment: 35S-GTPγS binding assay, antagonist activity versus 8-OH-DPAT; type: biochemical; conditions: reversal of 8-OH-DPAT-stimulated 35S-GTPγS binding; for IC50: membranes with cloned human 5-HT1A receptors, read-out: 5-HT1A Function IC50
T2 construct: expressed in transfected cells
T2 sequence (P08908 1-422): T1 sequence (P08908 1-422)
Description: Antagonist activity at 5-HT1A receptors was established by using a ^35S-GTPγS binding assay similar to that used by Lazareno and Birdsall (Br. J. Pharmacol. 109: 1120, 1993), in which the test compound's ability to affect the binding of ^35S-GTPγS to membranes containing cloned human 5-HT1A receptors was determined. Agonists produce an increase in binding whereas antagonists produce no increase but rather reverse the effects of the standard agonist 8-OH-DPAT. The test compound's maximum inhibitory effect is represented as the Imax, while its potency is defined by the IC50.

| SMILES | melting point | Ki [1] | 5-HT1A Function Imax (maximum inhibitory effect) [2] | IC50 [2] |
| --- | --- | --- | --- | --- |
| Cc1ccc2c3c(ccc2n1)OCC(CN1C2CCC1CC(O)(c1cccc(C(F)(F)F)c1)C2)O3 (stereo not shown) (as salt: fumarate) (hydrate or solvate) [Example 2, 8-{[8-Methyl-2,3-dihydro[1,4]dioxino[2,3-f]quinolin-2-yl]methyl}-3-[3-(trifluoromethyl)phenyl]-8-azabicyclo[3.2.1]octan-3-ol] | 146 to 150 °C | – | – | – |
| Cc1ccc2c3c(ccc2n1)OCC(CN1C2CCC1CC(O)(c1ccc4ccccc4c1)C2)O3 (stereo not shown) (as salt: fumarate) (hydrate or solvate) [Example 3, 8-{[8-Methyl-2,3-dihydro[1,4]dioxino[2,3-f]quinolin-2-yl}methyl]-3-(2-naphthyl)-8-azabicyclo[3.2.1]octan-3-ol] | 218 to 218.5 °C | – | – | – |
| Cc1ccc2c3c(ccc2n1)OCC(CN1C2CCC1CC(O)(c1ccccc1)C2)O3 (stereo not shown) [Example 1, 8-{[8-Methyl-2,3-dihydro[1,4]dioxino[2,3-f]quinolin-2-yl]methyl}-3-phenyl-8-azabicyclo[3.2.1]octan-3-ol] | 162 to 165 °C | 2.59 nM | (98.0) | 6.85 nM |
| Cc1ccc2c3c(ccc2n1)OCC(CN1C2CCC1CC(O)(c1cccc(C(F)(F)F)c1)C2)O3 (stereo not shown) [Example 2, 8-{[8-Methyl-2,3-dihydro[1,4]dioxino[2,3-f]quinolin-2-yl]methyl}-3-[3-(trifluoromethyl)phenyl]-8-azabicyclo[3.2.1]octan-3-ol] | – | 6.81 nM | – | – |
| Cc1ccc2c3c(ccc2n1)OCC(CN1C2CCC1CC(O)(c1ccc4ccccc4c1)C2)O3 (stereo not shown) [Example 3, 8-{[8-Methyl-2,3-dihydro[1,4]dioxino[2,3-f]quinolin-2-yl}methyl]-3-(2-naphthyl)-8-azabicyclo[3.2.1]octan-3-ol] | – | 3.45 nM | (100) | 55.5 nM |
